The target of one test is T1, δ-hENaC (Homo sapiens, UniProt P51172).
T1 construct: expressed in transfected cells; host or cells: HEK-293
T1 sequence (P51172 1-638 isoform P51172-1): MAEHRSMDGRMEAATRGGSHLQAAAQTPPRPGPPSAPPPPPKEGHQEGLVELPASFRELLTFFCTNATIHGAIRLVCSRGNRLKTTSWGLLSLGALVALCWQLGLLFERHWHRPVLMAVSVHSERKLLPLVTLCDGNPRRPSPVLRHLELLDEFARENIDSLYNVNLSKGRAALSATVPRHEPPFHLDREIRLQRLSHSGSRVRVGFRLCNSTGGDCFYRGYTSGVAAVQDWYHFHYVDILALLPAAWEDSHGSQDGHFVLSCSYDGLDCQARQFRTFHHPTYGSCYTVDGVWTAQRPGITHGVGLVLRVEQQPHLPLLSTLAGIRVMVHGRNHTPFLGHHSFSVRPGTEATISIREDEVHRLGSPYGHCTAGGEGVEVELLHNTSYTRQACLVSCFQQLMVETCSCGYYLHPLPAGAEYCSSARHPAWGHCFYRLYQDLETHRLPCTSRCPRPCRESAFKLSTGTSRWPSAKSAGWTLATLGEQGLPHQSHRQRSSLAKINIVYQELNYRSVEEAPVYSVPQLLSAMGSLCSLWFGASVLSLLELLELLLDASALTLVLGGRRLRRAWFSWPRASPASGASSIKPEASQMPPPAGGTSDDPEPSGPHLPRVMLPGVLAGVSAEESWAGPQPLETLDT
On the set-up: method as in PMID 24077967. Particulars: δ-hENaC alone, control current 60.6 ± 2.5 pA, mean ± S.E.; cited from earlier work.

The subject of a further test is αI68fs. Kind of test: Membrane abundance of αI68fs. The class given is cell-based, human. The settings on record: 200 nM, relative to WT control (=1). On the procedure:
(§1) Cell surface biotinylation was performed as previously described ([26]). In brief, A549 cells or transiently transfected HEK-293 cells were grown in 10 cm dishes in 37°C, 5% CO2 incubator in DMEM medium supplemented with 5% FBS. […] Medium was aspirated, and then cells were washed twice with 10 ml ice-cold phosphate-buffered saline (PBS), covered with 2.5 mg EZ-Link Sulfo-NHS-SS-Biotin (Thermo Scientific, Rockford, USA), dissolved in 10 ml ice-cold PBS, and incubated at 4°C with gentle agitation for 30 min. Fifty milliliters of quenching solution were added to cells; then cells were scraped in solution and transferred to fresh 50 ml tube. Cell suspension was centrifuged at 500 × g for 3 min. Supernatant was discarded, and 5 ml of Tris-buffered saline (TBS) was added to the cell pellet. The cell pellet was resuspended and centrifuged at 500 × g for 3 min. Supernatant was discarded and cell pellet was resuspended in lysis buffer containing protease inhibitor cocktail (10 µM pepstatin A, 10 µM phenylmethylsulfonyl fluoride, and 10 µM leupeptin) and transferred to fresh 1.5 ml centrifuge tube. Cell pellet was then homogenized on ice by ultrasonication using 1 s bursts and incubated on ice for at least 30 min. Intact cells and nuclei were pelleted by centrifugation at 10,000 × g for 2 min under cooling conditions. […] Exposed films were scanned and quantified using ImageJ (NIH, MD, USA). […]

Test [1] has as its system WT or mutant frameshift α-ENaC. As to the kind of experiment: Membrane abundance of α-ENaC, WT or mutant frameshift (overall). The class given is cell-based, human. The settings on record: HEK-293, WT or mutant frameshift α-ENaC. As for the experimental part:
as §1

Consider one molecule from article PMC5447021, “TNF Lectin-Like Domain Restores Epithelial Sodium Channel Function in Frameshift Mutants Associated with Pseudohypoaldosteronism Type 1B” (Frontiers in Immunology, 2017).

Structures are written as SMILES.

For `C[C@@H]1NC(=O)CNC(=O)[C@H](CCC(=O)O)NC(=O)[C@@H]2CCCN2C(=O)[C@H]([C@@H](C)O)NC(=O)[C@H](CCC(=O)O)NC(=O)[C@H](CCCNC(=N)N)NC(=O)[C@H](CCC(N)=O)NC(=O)CNC(=O)[C@@H](N)CSSC[C@@H](C(=O)O)NC(=O)[C@H](Cc2ccc(O)cc2)NC(=O)[C@H](Cc2c[nH]c3ccccc23)NC(=O)[C@@H]2CCCN2C(=O)[C@H](CCCCN)NC(=O)[C@H](C)NC(=O)[C@H](CCC(=O)O)NC1=O` [solnatide, L-cysteine, L-cysteinylglycyl-L-glutaminyl-L-arginyl-L-α-glutamyl-L-threonyl-L-prolyl-L-α-glutamylglycyl-L-alanyl-L-α-glutamyl-L-alanyl-L-lysyl-L-prolyl-L-tryptophyl-L-tyrosyl-, cyclic (1→17)-disulfide], on δ-hENaC, the “Maximal induced current, solnatide” value is recorded as 15.6 ± 7.9 pA. Moreover, the “Membrane abundance, solnatide 5 min” value in the test with αI68fs (5 min, own control 0.15 ± 0.06, p < 0.05 vs control) worked out at 0.25 ± 0.07. The “Membrane abundance, solnatide 10 min” value in the test with αI68fs (10 min, own control 0.15 ± 0.06, p < 0.01 vs control) is given as 0.32 ± 0.11. Besides, the “Membrane abundance of α-ENaC” value in test [1] is “transient and significant increase in membrane abundance of α-ENaC”.
